This test has as its system banana meristems. Nature of the test: Micropropagation of banana meristems in media comprising a cytokinin-like substance. Conditions: meristematic tissue propagation; compared with other cytokinin-like substances; TDZ in the range of 0.1 ppm. The format is cell-based. The source says: In some embodiments, during the propagation stage, and typically before exposure to the demethylating agent, the meristematic tissues are propagated, at least in one propagating cycle, in a media comprising a cytokinin-like substance. Cytokinin like substances are known in the art, and non-limiting examples, include isopentenyl adenine (2iP), kinetin (KIN), 6-Benzyladenin (BA) and 6-Benzylaminopurine (BAP), 1-phenyl-3-(1,2,3-thiadiazol-5-yl) urea (TDZ).
The presence of TDZ in the culture media is in very low amounts, typically, in the range of 0.1 ppm. This amount is sufficient to induce the desired cell division.
On the 7th cycle of propagation 0.1 ppm Thidiazuron (TDZ) was added to the medium. In cycles 20 and 21, 30 μM 5-Aza-2-Deoxycytidine (a demethylation compound) was filter sterilized and added to the medium after solidification.

The record followed here is patent US20200275624A1, “A METHOD FOR PRODUCING BANANA PLANTS WITH TOLERANCE TO FUSARIUM OXYSPORUM CUBENSIS TR4” (RAHAN MERISTEM (1998) LTD, priority 2017, published 2020).

In the case of `O=C(Nc1ccccc1)Nc1cnns1` [TDZ, 1-phenyl-3-(1,2,3-thiadiazol-5-yl) urea], the rate of multiplication result is listed as “best rate of multiplication”.
